These results are taken from patent US4937232A, “Inhibition of protein kinase C by long-chain bases” (priority 1988, dated 1990).

pIC50: −log10 of the molar value. Values joined by “and” are separate entries in the source; they are usually repeats but may differ in a detail not shown here. Equal entries are not always repeated. “Also recorded” adds a separate entry of the source. Where two headings read alike, the source gives them in different places.

Series [1] deals with human neutrophils. The conditions noted are these: cited from earlier work.
The nature of series [2]: HL-60 cell growth and viability. It is filed as cell-based, human. The conditions noted are these: human, hl-60 cells, 8 nM PMA, 24 h. As for the experimental part: (§1) The HL-60 cells (obtained from the American Type Culture Collection, ATCC CCL240) were grown at 37° as a suspension culture in 175 cm^2 Nunc tissue culture flasks (Vangard International, Neptune, N.J.). The cells were subcultured at a density of 0.25×10^6 cells/ml and used between passage numbers 30 and 40.
(§2) Cells were centrifuged at 600 g for 3 min, and added at 1×10^5 cells per well in 12-well culture dishes. Medium, PMA, and long-chain bases (prepared as the 1:1 molar complex with fatty acid-free bovine serum albumin) at the indicated concentrations were added for a total volume of 2.0 ml. After the desired times, the cells in suspension were counted and checked for viability (trypan blue exclusion) with a hemacytometer. The attached cells were quantitated by measuring DNA content according to the method of West et al (Anal. Biochem., 147, 289-295, 1985) and by assaying for acid phosphatase according to the method of Schnyder (J. Exp. Med., 148, 434-445, 1978).

Series [3] has as its system HL-60 cells. In words: HL-60 cell growth and viability. It is filed as cell-based, human. The conditions noted are these: Homo sapiens, HL-60, 24 h, read-out: inhibition of growth of HL-60 cells. Here is the method:
as §1, §2

Series [4] deals with HL-60 cells. Nature of the series: PMA-induced adherence (attachment) of HL-60 cells. It is filed as cell-based, human. Here is the method: as §2
Series [5] relates to HL-60 cells. In words: Acid phosphatase activities of suspended and attached HL-60 cells. It is filed as cell-based, human. To be noted: 8 nM PMA, 0 μM sphinganine. As for the experimental part: as §2
Series [6] relates to HL-60 cells. In words: Morphology and marker enzymes (ANA esterase, acid phosphatase) of HL-60 cells on day 3. Type of series: cell-based, human. The conditions noted are these: 8 nM PMA, 0 μM sphinganine, 3 days. The source says:
Expression of most other signs of HL-60 cell differentiation requires longer time periods after treatment with PMA. For these experiments, the cells were examined on day 3 for adherence and acid phosphatase activity (Table IV) and morphology and the marker enzymes alpha-naptholacetate (ANA) esterase and acid phosphatase (Table V).

Series [7] deals with human neutrophils. In words: Oxygen consumption (oxidative burst) of human neutrophils. Type of series: cell-based. To be noted: for pIC50: oxidative burst, PMA activation, read-out: Concentration required for 50% inhibition. The source says: Human neutrophils were obtained by continuous flow leukapheresis from normal adults. Residual erythrocytes were removed by hypotonic lysis with a resulting purity of >95% neutrophils. Alternatively peripheral blood was obtained by phlebotomy and neutrophils were isolated by HESPAN (6% Hetastarch, 0.9% NaCl) sedimentaion of erythrocytes, centrifugation through lymphocyte separation medium (9.4% sodium diatrizoate, 6.2% Ficoll), and hypotonic lysis of residual erythrocytes. Isolated cells were resuspended in phosphate buffered saline (PBS)-glucose, containing 0.6 mM CaCl2, 2.6 mM KCl, 1.5 mM KH2 PO4, 0.5 mM MgCl2, 136 mM NaCl, 8 mM Na2 HPO4, 5.5 mM glucose.
Oxygen consumption was measured using a Clark-type electrode with YSI model 53 oxygen monitor. Assays were conducted at 37° C. with 6.5×10^6 cells per ml with a total volume of either 2.5 ml or 4 ml. Effectors were injected into the electrode chamber using a Hamilton syringe. Initial slopes after the addition of the stimuli were used for rate calculations. For activators with a lag prior to the onset of the oxidative burst, maximal rates following the lag were used.

In series [8] the test system is human neutrophils. Nature of the series: [32P]-phosphate incorporation into TCA-precipitable material of neutrophils. Type of series: cell-based. The conditions noted are these: PMA (1 μM). Here is the method: Neutrophils (1.4×10^8 cells) were preincubated in with 0.5 mCi Na2 H^32 PO4 in buffer containing […] NaCl, 5.56 mM glucose, 10 mM Hepes, and 0.33 mM CaCl2 for a total of 1 hr at 37° C. in a shaking waterbath. Excess unbound counts were removed by centrifugation and resuspension, repeated five times. The cells were then divided into 4 treatment groups (see RESULTS below) containing approximately 3.5×10^7 cells each. All groups were incubated at 37° C. in a shaking waterbath for the same total time. Some samples were incubated 10 min. with sphinganine (40 μM) prior to addition of 1 μM PMA (final concentration), with which they were incubated for an additional 15 min. The reaction was stopped by addition of an equal volume of boiling SDS dissociation buffer (9% SDS, 1% mercaptoethanol, 15% glycerol, 30 mM Tris, pH 7.8). The samples were run on a 12% SDS-polyacrylamide gel using the method of Rudolph and Krueger (Adv. Cyclic Nucleotide Res. 101, 107-133, 1979). The gels were dried using a Bio-Rad model 2400 Gel Slab Dryer. Autoradiography was performed on the dried gels using Kodak X-omat X-ray film and Dupont Cronex intensifying screens. The gels were exposed for 12 hrs at -70° C.
Alternatively, neutrophils were preincubated as described above using 0.1 mCi of ^32 P labeled phosphate. The cells were broken by 5 min. of sonication using an Ultramet III waterbath sonicator, and 5% (final concentration) trichloroacetic acid was added to each sample. […] The precipitate was filtered and washed extensively using an Amicon filtration system and counted using a Beckman LS7000 scintillation counter.

Series [9] concerns phorbol ester binding site (protein kinase C) of neutrophils. Nature of the series: Cellular [3H]-phorbol dibutyrate binding in neutrophils. Also noted: species or system human. To be noted: 50 μM; 15 min. As for the experimental part: Neutrophils (1×10^8 cells/ml) were preincubated with the indicated concentration of sphinganine, palmitic acid, or ceramide for five minutes prior to the addition of 50 nM (final concentration) of [^3 H]-phorbol dibutyrate (specific activity of 8.3 Ci/mMole). The cells were incubated an additional 15 min. in a shaking waterbath at 37° C. The incubation mixtures were filtered using an Amicon filtration manifold model VFM-III and washed 5 times with 5 mls of ice-cold PBS-glucose. The filters were counted using a Beckman LS7000 scintillation counter.

For another series, the system named is protein kinase C. Nature of the series: Triton X-100 mixed micellar assay for protein kinase C activity. It is filed as biochemical, rat. The conditions noted are these: mixed micellar assay. As for the experimental part: Protein kinase C was partially purified from rat brain as described by Hanrun et al (J. Biol. Chem., 260, 10043, 1985), which is hereby incorporated by reference.
Protein kinase C was assayed with Triton X-100 mixed micelles as described by Hanrun et al, (ibid.), Sphingosine was dried down with the lipid cofactors.

With `CC1CNCCN1S(=O)(=O)c1cccc2cnccc12` (stereo not shown) [H-7], in the series with human neutrophils [1], the “inhibition of the respiratory burst in human neutrophils” value is given as “incapable of inhibiting”.
Regarding `NCCNS(=O)(=O)c1cccc2cnccc12` [H-9], the “inhibition of the respiratory burst in human neutrophils” value in the series on human neutrophils [1] was “incapable of inhibiting”.
As a reminder, the viability is the share of living cells, or the viability signal relative to a control. In general, inhibition refers to the relative decrease from the control value, in per cent. With `CCCCCCCCCCCCCC(=O)O[C@@H]1[C@@H](C)[C@@]2(O)[C@@H](C=C(CO)C[C@]3(O)C(=O)C(C)=C[C@@H]23)[C@@H]2C(C)(C)[C@]12OC(C)=O` [PMA, Phorbol 12-myristate 13-acetate, reference compound], the viability at 24 h, 0.008 µM in series [2] (0 μM sphinganine, read-out: Percent viability of suspended cells) was found to be 60%; in series [2] (read-out: % Viability) it was 80%. Moreover, in the series on HL-60 cells [3], the inhibition at 0.008 µM was 70%. Besides, the “number of adherent cells” value with HL-60 cells [4] (8 nM PMA alone, 24 h) is 0.76 ×10^5. In addition, the “Adherent cells (%)” value with HL-60 cells [4] (8 nM PMA, 0 μM sphinganine, 72 h) is 96%. Further, the “% Adherence” value in the series on HL-60 cells [4] (8 nM PMA, 24 h) is 61% and 61.3 ± 1.0%. Further, the “Acid phosphatase activity, Adherent” value in the series with HL-60 cells [5] (24 h) is 0.52 ± 0.01 nmol/h/dish; in the series on HL-60 cells [5] (72 h), 2.20 ± 0.09 nmol/h/dish. The “Acid phosphatase activity, Suspended” value stood at 0.11 ± 0.05 nmol/h/dish in the series with HL-60 cells [5] (24 h) and 0.05 ± 0.01 nmol/h/dish in the series with HL-60 cells [5] (72 h). Besides, the “Adherence (% of total)” value with HL-60 cells [5] (24 h) was 83 % of total. The “Acid phosphatase activity, Adherent (%)” value in the series with HL-60 cells [5] (72 h) stood at 98%. Also, the Acid phosphatase turned out to be 0.60 nmol/h/105 cells with HL-60 cells [6] (adherent cells) and 0.30 nmol/h/105 cells in the series on HL-60 cells [6] (suspended cells). The “RATE of oxygen consumption, NO SPHINGANINE” value in the series on human neutrophils [7] (activator alone) is 4.3 nmols O2 consumed/min/10^6 cells. Further, in the series with human neutrophils [8], the “[32P]-phosphate incorporation into TCA-precipitable material” value is listed as 4912 COUNTS PER MINUTE.
As to `CCCCCCCCCCCCCCCC(=O)O` [Palmitic acid, reference compound], the pIC50 in the series on human neutrophils [7] (Homo sapiens, Neutrophil) was less than 4.00. The “displacement of [3H]-phorbol dibutyrate” value in series [9] was 3%.
Ceramide: the “inhibition of PMA-induced attachment” value with HL-60 cells [4] (8 nM PMA) is recorded as “not inhibitory”. In addition, the “inhibition of protein kinase C (specificity)” value was “did not activate or inhibit” in the series with protein kinase C and “without effect; also recorded: not to be inhibitors” in the series with protein kinase C (listed as ceramide). Besides, the pIC50 in the series with human neutrophils [7] is less than 4.00. The “displacement of [3H]-phorbol dibutyrate” value in [9] is 18%.
